Columns and labels:
[1] = Stability test: aging of formulation samples in heated ovens per CIPAC MT 46.3, isoxadifen-ethyl content by HPLC; assay type: physicochemical; settings: for RPH % (relative percentage of hydrolysis): stored at 54° C. for 1 week
Experimental: The stability of the isoxadifen-ethyl in these compositions was determined by aging samples in heated ovens having the same atmosphere therein, and then comparing the isoxadifen-ethyl content before and after aging to determine relative percentage of hydrolysis (RPH). RPH was calculated by the following equation: […]
Isoxadifen-ethyl content was determined by assaying the compositions with high-pressure liquid chromatography (HPLC) using reverse phase columns and eluants.
Samples prepared in Examples 4, 5 and 6 were stored at 54° C. for 1 week. The procedures are followed according to CIPAC MT 46.3. The concentration of isoxadifen-ethyl was measured at the end of each storage time by HPLC.

[2] = Stability of isoxadifen-ethyl (hydrolysis in water or during storage), general statement; assay type: physicochemical; settings: dissolved or dispersed in water; storage with exposure to moisture
[3] = Example 4 oil based suspension concentrate (OD) with tribenuron-methyl, 10 weight % isoxadifen-ethyl
[4] = Example 5 soluble granules (SG) with metsulfuron-methyl, 7 weight % isoxadifen-ethyl
[5] = Example 6 water dispersible granules (WG) with metsulfuron-methyl, 7 weight % isoxadifen-ethyl

Compound | RPH % (relative percentage of hydrolysis) [1, 3] [%] | RPH % (relative percentage of hydrolysis) [1, 4] [%] | RPH % (relative percentage of hydrolysis) [1, 5] [%] | stability when mixing with sulfonylurea herbicides in formulations ([1]; relative to formulations containing the amorphous form) | stability (hydrolysis) [2]
CCOC(=O)C1=NOC(c2ccccc2)(c2ccccc2)C1 [Isoxadifen-ethyl, crystalline modification I] [Ethyl 4,5-dihydro-5,5-diphenyl-3-isoxazolecarboxylate] | 0 | 0 | 0 | significant increase in its stability | 
CCOC(=O)C1=NOC(c2ccccc2)(c2ccccc2)C1 [Amorphous isoxadifen-ethyl, Ethyl 4,5-dihydro-5,5-diphenyl-3-isoxazolecarboxylate] | 50 | 40 | 45 |  | highly unstable

Source: patent US10015967B2, “Form of isoxadifen-ethyl, a process for its preparation and use of the same” (ROTAM AGROCHEM INTERNATIONAL COMPANY LIMITED, priority 2015, dated 2018)
